# Experimental data from patent publication US7465741B2, “C-substituted tricyclic isoxazoline derivatives and their use as anti-depressants” (Janssen Pharmaceutica N.V., priority 2002, dated 2008).
# Legend:
# [1] = target: T1, hα2A receptor (Homo sapiens, UniProt P08913); assay: Radioligand binding experiment for hα2A receptor ([3H]-raulwolscine, CHO cell membranes); details: [3H]-raulwolscine 1 nM, membranes of CHO cells transfected with human α2A receptor; read-out: pIC50 hα2A (converted)
# T1 construct: expressed in transfected cells; host or cells: CHO cells
# T1 sequence (P08913 1-465): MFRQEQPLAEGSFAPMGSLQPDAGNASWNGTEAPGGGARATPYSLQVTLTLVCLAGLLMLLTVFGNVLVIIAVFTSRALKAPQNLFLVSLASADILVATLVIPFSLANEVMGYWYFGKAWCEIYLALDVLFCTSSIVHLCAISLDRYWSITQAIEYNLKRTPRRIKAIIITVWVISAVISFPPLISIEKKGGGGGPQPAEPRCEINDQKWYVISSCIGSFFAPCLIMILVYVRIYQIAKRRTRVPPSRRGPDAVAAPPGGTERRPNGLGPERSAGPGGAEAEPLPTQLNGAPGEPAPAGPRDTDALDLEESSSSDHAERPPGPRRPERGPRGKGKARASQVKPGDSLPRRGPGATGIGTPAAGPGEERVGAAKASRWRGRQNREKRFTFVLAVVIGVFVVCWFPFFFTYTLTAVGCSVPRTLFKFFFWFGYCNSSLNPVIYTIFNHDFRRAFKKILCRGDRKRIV
# Experimental: (§1) The interaction of the compounds according to Formula (I) with hα2-receptors and h5-HT-transporters was assessed in in vitro radioligand binding experiments. In general, a low concentration of a radioligand with a high binding affinity for a particular receptor or transporter is incubated with a sample of a tissue preparation enriched in a particular receptor or transporter or with a preparation of cells expressing cloned human receptors in a buffered medium. During the incubation, the radioligand binds to the receptor or transporter. When equilibrium of binding is reached, the receptor bound radioactivity is separated from the non-bound radioactivity, and the receptor- or transporter-bound activity is counted. The interaction of the test compounds with the receptor is assessed in competition binding experiments. Various concentrations of the test compound are added to the incubation mixture containing the receptor- or transporter preparation and the radioligand. The test compound in proportion to its binding affinity and its concentration inhibits binding of the radioligand. The radioligand used for hα2A, hα2B and hα2C receptor binding was [^3H]-raulwolscine and for the h5-HT transporter was [^3H]paroxetine.
# (§2) CHO cells, stabile transfected with human adrenergic-α2A-, —α2B or α2C receptor cDNA, were cultured in Dulbecco's Modified Eagle's Medium (DMEM)/Nutrient mixture Ham's F12 (ratio 1:1)(Gibco, Gent-Belgium) supplemented with 10% heat inactivated fetal calf serum (Life Technologies, Merelbeke-Belgium) and antibiotics (100 IU/ml penicillin G, 100 μg/ml streptomycin sulphate, 110 μg/ml pyruvic acid and 100 μg/ml L-glutamine). One day before collection, cells were induced with 5 mM sodiumbutyrate. Upon 80-90% of confluence, cells were scraped in phosphate buffered saline without Ca^2+ and Mg^2+ and collected by centrifugation at 1500×g for 10 min. The cells were homogenised in Tris-HCl 50 mM using an Ultraturrax homogenizer and centrifuged for 10 min at 23,500×g. The pellet was washed once by resuspension and rehomogenization and the final pellet was resuspended in Tris-HCl, divided in 1 ml aliquots and stored at −70° C.
# (§3) Membranes were thawed and re-homogenized in incubation buffer (glycylglycine 25 mM, pH 8.0). In a total volume of 500 μl, 2-10 μg protein was incubated with [^3H]raulwolscine (NET-722) (New England Nuclear, USA) (1 nM final concentration) with or without competitor for 60 min at 25° C. followed by rapid filtration over GF/B filter using a Filtermate196 harvester (Packard, Meriden, Conn.). Filters were rinsed extensively with ice-cold rinsing buffer (Tris-HCl 50 mM pH 7.4). Filter-bound radioactivity was determined by scintillation counting in a Topcount (Packard, Meriden, Conn.) and results were expressed as counts per minute (cpm). Non-specific binding was determined in the presence of 1 μM oxymetazoline for hα2A- and hα2B receptors and 1 μM spiroxatrine for hα2C receptors.
# (§4) Data from assays in the presence of compound were calculated as a percentage of total binding measured in the absence of test compound. Inhibition curves, plotting percent of total binding versus the log value of the concentration of the test compound, were automatically generated, and sigmoidal inhibition curves were fitted using non-linear regression. The pIC50 values of test compounds were derived from individual curves.
# [2] = target: T2, hα2C receptor (Homo sapiens, UniProt P18825); assay: Radioligand binding experiment for hα2C receptor ([3H]-raulwolscine, CHO cell membranes); details: [3H]-raulwolscine 1 nM, membranes of CHO cells transfected with human α2C receptor; read-out: pIC50 hα2C (converted)
# T2 construct: expressed in transfected cells; host or cells: CHO cells
# T2 sequence (P18825 1-462): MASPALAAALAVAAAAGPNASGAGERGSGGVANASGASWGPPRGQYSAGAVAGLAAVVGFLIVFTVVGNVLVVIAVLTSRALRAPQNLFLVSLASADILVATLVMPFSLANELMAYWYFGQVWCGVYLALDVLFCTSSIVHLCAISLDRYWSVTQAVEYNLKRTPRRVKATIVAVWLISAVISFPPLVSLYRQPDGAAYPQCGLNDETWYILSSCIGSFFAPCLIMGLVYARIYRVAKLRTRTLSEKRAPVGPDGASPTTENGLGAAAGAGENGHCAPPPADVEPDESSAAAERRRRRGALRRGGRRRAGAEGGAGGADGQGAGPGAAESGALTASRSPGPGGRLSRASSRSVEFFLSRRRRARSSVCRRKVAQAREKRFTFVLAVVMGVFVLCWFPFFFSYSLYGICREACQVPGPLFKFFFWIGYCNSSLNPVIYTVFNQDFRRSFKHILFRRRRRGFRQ
# Experimental: as §1, §2, §3, §4
# [3] = target: T3, h5-HT transporter (Homo sapiens, UniProt P31645); assay: Radioligand binding experiment for 5-HT transporter ([3H]paroxetine, human platelet membranes); details: [3H]paroxetine 0.5 nM, read-out: pIC50 h5HTT (converted)
# T3 construct: Human platelet membranes (Oceanix Biosciences Corporation, Hanover, Md., USA) were thawed; tissue Oceanix Biosciences Corporation; host or cells: human platelet membranes
# T3 sequence (P31645 whole entry): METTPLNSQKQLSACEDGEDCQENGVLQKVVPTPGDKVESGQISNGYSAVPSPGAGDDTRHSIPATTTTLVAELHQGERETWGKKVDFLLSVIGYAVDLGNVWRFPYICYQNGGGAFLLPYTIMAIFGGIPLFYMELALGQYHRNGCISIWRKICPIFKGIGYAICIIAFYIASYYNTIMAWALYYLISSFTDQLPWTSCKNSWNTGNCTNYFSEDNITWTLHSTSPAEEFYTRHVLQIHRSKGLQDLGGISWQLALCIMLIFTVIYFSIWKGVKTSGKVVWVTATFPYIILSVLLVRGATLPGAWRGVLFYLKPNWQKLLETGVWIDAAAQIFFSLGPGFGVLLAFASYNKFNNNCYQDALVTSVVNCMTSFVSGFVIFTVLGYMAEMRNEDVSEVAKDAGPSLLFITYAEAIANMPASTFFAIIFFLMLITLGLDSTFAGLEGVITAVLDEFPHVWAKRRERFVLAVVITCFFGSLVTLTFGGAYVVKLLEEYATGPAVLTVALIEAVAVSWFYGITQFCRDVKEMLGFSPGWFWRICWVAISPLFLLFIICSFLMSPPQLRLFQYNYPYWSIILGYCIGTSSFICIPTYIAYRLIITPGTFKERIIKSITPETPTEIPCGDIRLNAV
# Experimental: as §1
# Human platelet membranes (Oceanix Biosciences Corporation, Hanover, Md., USA) were thawed, diluted in buffer (Tris-HCl 50 mM, 120 mM NaCl and 5 mM KCl) and quickly (max 3 s) homogenised with an Ultraturrax homogenizer. In a total volume of 250 μL, 50-100 μg protein was incubated with [^3H]paroxetine (NET-869) (New England Nuclear, USA) (0.5 nM final concentration) with or without competitor for 60 min at 25° C. Incubation was stopped by rapid filtration of the incubation mixture over GF/B filters, pre-wetted with 0.1% polyethyleneamine, using a Filtermate 196 harvester (Packard, Meriden, Conn.). Filters were rinsed extensively with ice-cold buffer and radioactivity on the filters was counted in a Topcount liquid scintillation counter (Packard, Meriden, Conn.). Data were expressed as cpm. Imipramine (at 1 μM final concentration) was used to determine the non-specific binding.
# as §4
# [4] = target: T4, hα2B receptor (Homo sapiens, UniProt P18089); assay: Radioligand binding experiment for hα2B receptor ([3H]-raulwolscine, CHO cell membranes); details: [3H]-raulwolscine 1 nM, membranes of CHO cells transfected with human α2B receptor; read-out: pIC50 hα2B (converted)
# T4 construct: expressed in transfected cells; host or cells: CHO cells
# T4 sequence (P18089 1-450): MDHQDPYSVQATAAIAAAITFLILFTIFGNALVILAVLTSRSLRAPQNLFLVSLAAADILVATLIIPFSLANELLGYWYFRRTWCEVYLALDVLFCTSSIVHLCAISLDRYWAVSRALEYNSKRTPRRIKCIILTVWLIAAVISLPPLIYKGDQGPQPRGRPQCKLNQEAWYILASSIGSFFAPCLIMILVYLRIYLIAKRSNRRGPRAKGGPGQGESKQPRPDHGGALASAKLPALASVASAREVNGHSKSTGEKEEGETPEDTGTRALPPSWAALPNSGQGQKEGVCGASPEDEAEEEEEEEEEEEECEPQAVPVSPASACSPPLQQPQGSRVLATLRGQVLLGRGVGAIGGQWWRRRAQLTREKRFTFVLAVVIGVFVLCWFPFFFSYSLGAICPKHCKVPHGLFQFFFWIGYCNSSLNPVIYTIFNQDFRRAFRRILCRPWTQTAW
# Experimental: as §1, §2, §3, §4
IC50 [1] [nM],IC50 [2] [nM],IC50 [3] [nM],IC50 [4] [nM],SMILES
3.16,1.58,126,–,"CCNC(=O)c1cc2c(cc1OC)C1=NOC(CN3CCN(C/C(C)=C/c4ccccc4)CC3)C1CO2 (centres unmarked) [Compound 16, 8-Methoxy-3-[4-(2-methyl-3-phenyl-allyl)-piperazin-1-ylmethyl]-3a,4-dihydro-3H -chromeno[4,3-c]isoxazole-7-carboxylic acid ethylamide]"
5.01,0.794,–,–,C/C(=C\c1ccccc1)CN1CCN(CC2ON=C3c4ccc(C=O)cc4OCC32)CC1 (centres unmarked) [Compound 19]
39.8,5.01,3.98,12.6,CCN(Cc1cc2c(cc1OC)C1=NOC(CN3CCN(CC(C)=Cc4ccc(F)cc4)CC3)C1CO2)C(C)C (centres unmarked) [Compound 24]
5.01,0.794,–,–,"CC(=O)NCc1ccc2c(c1)OCC1C2=NOC1CN1CCN(C/C(C)=C/c2ccccc2)CC1 (centres unmarked) [Compound 15, N-{3-[4-(2-Methyl-3-phenyl-allyl)-piperazin-1-ylmethyl]-3a,4-dihydro-3H -chromeno[4,3-c]isoxazol-7-ylmethyl}-acetamide]"
15.8,12.6,158,–,"COc1cc2c(cc1-c1ccccc1)OCC1C2=NOC1CN1CCN(C/C(C)=C/c2ccccc2)CC1 (centres unmarked) [Compound 17, 8-Methoxy-3-[4-(2-methyl-3-phenyl-allyl)-piperazin-1-ylmethyl]-7-phenyl-3a,4-dihydro-3H-chromeno[4,3-c]isoxazole]"

# Further lines, the compound ahead of its results:
SMILES,IC50 [1] [nM],IC50 [2] [nM],IC50 [3] [nM],IC50 [4] [nM]
"COc1cc2c(cc1C)OCC1C2=NOC1CN1CCN(C/C(C)=C/c2ccccc2)CC1 (centres unmarked) [Compound 2, 8-Methoxy-7-methyl-3-[4-(2-methyl-3-phenyl-allyl)-piperazin-1-ylmethyl]-3a,4-dihydro-3H-chromeno[4,3-c]isoxazole]",2,1.58,20,–
"COCCOCOCc1cc2c(cc1OC)C1=NOC(CN3CCN(C/C(C)=C/c4ccccc4)CC3)C1CO2 (centres unmarked) [Compound 6, 8-Methoxy-7-(2-methoxy-ethoxymethoxymethyl)-3-[4-(2-methyl-3-phenyl-allyl) -piperazin-1-ylmethyl]-3a,4-dihydro-3H-chromeno[4,3-c]isoxazole]",7.94,0.794,31.6,2.51
"CON=Cc1ccc2c(c1)OCC1C2=NOC1CN1CCN(CC(C)=Cc2ccccc2)CC1 (centres unmarked) [Compound 12, 3-[4-(2-Methyl-3-phenyl-allyl)-piperazin-1-ylmethyl]-3a,4-dihydro-3H -chromeno[4,3-c]isoxazole-7-carbaldehyde O-methyl-oxime]",6.31,3.98,100,–
"COc1cc2c(cc1COC(C)=O)OCC1C2=NOC1CN1CCN(C/C(C)=C/c2ccccc2)CC1 (centres unmarked) [Compound 7, Acetic acid 8-methoxy-3-[4-(2-methyl-3-phenyl-allyl)-piperazin-1-ylmethyl]-3a,4-dihydro-3H-chromeno[4,3-c]isoxazol-7-ylmethyl ester]",3.98,1.26,12.6,–
"Cc1ccc2c(c1)C1=NOC(CN3CCN(CC=Cc4ccccc4)CC3)C1CO2 (centres unmarked) [Compound 1, 8-Methyl-3-[4-(3-phenyl-allyl)-piperazin-1-ylmethyl]-3a,4-dihydro-3H-chromeno[4,3-c]isoxazole]",3.98,15.8,39.8,10
"COc1cc2c(cc1CO)OCC1C2=NOC1CN1CCN(C/C(C)=C/c2ccccc2)CC1 (centres unmarked) [Compound 4, {8-Methoxy-3-[4-(2-methyl-3-phenyl-allyl)-piperazin-1-ylmethyl]-3a,4-dihydro-3H-chromeno[4,3-c]isoxazol-7-yl}-methanol]",3.98,1.58,100,–
"CC(=Cc1ccccc1)CN1CCN(CC2ON=C3c4ccc(CN(C)CCO)cc4OCC32)CC1 (centres unmarked) [Compound 9, 2-(Methyl-{3-[4-(2-methyl-3-phenyl-allyl)-piperazin-1-ylmethyl]-3a,4-dihydro-3H -chromeno[4,3-c]isoxazol-7-ylmethyl}-amino)-ethanol]",1.26,0.2,25.1,0.501
"C/C(=C\c1ccccc1)CN1CCN(CC2ON=C3c4ccc(/C=N\O)cc4OCC32)CC1 (centres unmarked) [Compound 11, 3-[4-(2-Methyl-3-phenyl-allyl)-piperazin-1-ylmethyl]-3a,4-dihydro-3H -chromeno[4,3-c]isoxazole-7-carbaldehyde oxime]",5.01,1.58,5.01,–
"COc1cc2c(cc1COc1ccccc1)OCC1C2=NOC1CN1CCN(C/C(C)=C/c2ccccc2)CC1 (centres unmarked) [Compound 8, 8-Methoxy-3-[4-(2-methyl-3-phenyl-allyl)-piperazin-1-ylmethyl]-7-phenoxymethyl-3a,4-dihydro-3H-chromeno[4,3-c]isoxazole]",25.1,20,200,–
